Measurements as given in patent US10196357B2, “Biaryl compositions and methods for modulating a kinase cascade” (Athenex, Inc., priority 2007, dated 2019).
“Also recorded” adds a separate entry of the source.

Key:
[1] = tested on: osteoclasts on bone slices; experiment: osteoclast formation on bone slices; format: cell-based; details: vs untreated control
Method: To determine the effects of the compounds on osteoclast formation on bone slices, the bone slices were treated with Rapamycin, KX1-141, KX2-328, or KX1-329. […] The number of osteoclasts on the bone slices were counted.
Bone slices were treated as indicated above. […] The bone slices were then stained with TRAP.

[2] = tested on: resorption pits on bone slices; experiment: resorption pit formation on bone slices; format: cell-based; details: vs untreated control
Method: During the resorption of bone, osteoclasts form resorption pits. To determine the effects of the compounds on resorption pit formation on bone slices, the bone slices were treated with Rapamycin, KX1-141, KX2-328, or KX1-329, as described above. […] The number of resorption pits on the bone slices was determined.
Bone slices were treated as indicated above. […] The bone slices were stained with Toluidine Blue to reveal resorption pits, which are indicators of osteoclast-mediated resorption of bone.

c-Src 3T3 cells = experiment: BrdU cell growth inhibition, c-Src 3T3; format: cell-based, mouse; details: Mus musculus; for activity at 0.1 µM / activity at 1 µM / activity at 10 µM: NIH3T3, read-out: c-Src 3T3 Growth, % of Control Mean, n = 3; for activity at 0.1 µM: 100 nM; for GI50: c-Src 3T3 (c-Src527F/NIH3T3) cells, read-out: GI50
Outline: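 c-Src 3T3 cells on poly-D-lysine plates in DMEM with 2% FBS, L-glutamine, pyruvate and 10 mM HEPES. Compounds came from 20 mM DMSO stocks diluted in DMEM/10% FBS. Proliferation was read by colorimetric BrdU-incorporation ELISA, and GI50 was extrapolated from growth relative to time-zero and untreated controls.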

[3] = tested on: osteoclast precursors derived from spleen cells; experiment: osteoclast formation from spleen cells; format: cell-based; details: 5 days, RANKL and M-CSF, vs untreated control
Method: To determine the effect of the compounds on osteoclast formation, the compounds were added to osteoclast precursors derived from spleen cells. For the generation of spleen-derived osteoclasts, spleen cells comprising osteoclast precursors were treated with Rapamycin, KX1-141, KX2-328 (AstraZeneca compound), or KX1-329 for 5 days in the presence of receptor activator of nuclear factor-xB ligand (RANKL) and macrophage colony-stimulating factor (M-CSF). In in vitro murine or human osteoclast models, soluble RANKL enables osteoclast precursors to differentiate in the presence of M-CSF (Quinn, et al.; 1998, Endocrinology, 139, 4424-4427; Jimi, et al.; 1999, J. Immunol., 163, 434-442). The untreated control cells were incubated in the presence of RANKL and M-CSF alone. Rapamycin was used as a positive control for the inhibition of osteoclast formation.
For generating spleen-derived osteoclasts, spleen cells were treated as described above. […] Cells were then stained with the osteoclast marker, tartrate-resistant acid phosphatase (TRAP) to visualize differentiated cells. The numbers of TRAP-positive osteoclasts were counted.

osteoblasts = experiment: osteoblast protein expression; format: cell-based
Method: The enzyme alkaline phosphatase has been used as an indicator of osteoblast activity, as it is involved in making phosphate available for calcification of bone.
To determine the effects of the compounds on osteoblast activity and protein expression, osteoblasts were treated with medium, DMSO, BMP2, KX1-141, KX2-328, or KX1-329 as indicated above. The protein concentration in cell lysates was determined (μg/10 μl) (FIG. 23).

HT29 cell line = experiment: BrdU cell growth inhibition, HT29; format: cell-based, human; details: Homo sapiens; for GI50: HT-29, HT29 (Colon) cells, read-out: GI50; for activity at 0.05 µM / activity at 0.5 µM / activity at 5 µM: HT-29, read-out: HT-29 Growth, % of Control Mean, n = 3; for activity at 0.05 µM: 50 nM; for activity at 0.5 µM: 500 nM
Outline: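 HT29 colon carcinoma cells treated with compounds diluted from 20 mM DMSO stocks into DMEM/10% FBS. Proliferation read as colorimetric BrdU incorporation ELISA; GI calculated relative to untreated cells at time 0 and control cells at day n, with GI50 extrapolated. Net cell loss below time-0 level scored as cytotoxicity.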

[4] = noise-induced hearing loss; format: in vivo, Chinchillas; details: chinchilla ears treated on round window, 4 kHz band noise 105 dB SPL 4 h, days 1, 7, 21; relative to control ears
Method: Chinchillas (N=6) were used in studies of noise-induced hearing loss. The animals' hearing sensitivity was measured using standard electrophysical techniques before the experimental manipulation. […] Animals were anesthetized, the auditory bullae were opened, and the left and right cochleas were visualized. The round window leading to the scala tympani of the cochlea was used as the access point for drug application. Animals were treated with KX1-004, KX1-141, KX1-329 or KX2-328 (a non-ATP competitive inhibitor from AstraZeneca, KX2-238), emulsified in DMSO, in 1000 mM of saline solution, which was placed on the round window of one ear. KX1-004:
A control solution of 3 mM DMSO in 1000 mM of saline solution was placed on the round window of the other ear. The solution was allowed to set on the round window for 30 minutes, then the auditory bullae were closed. […] Following the noise exposure, the animals' hearing was tested at day 1, day 7, and day 21 to determine evoked potential threshold shifts. Permanent threshold shift was assessed at day 21.
FIGS. 10-12 show the average threshold shifts for animals treated with KX1-004, KX1-141, KX1-329 or KX2-328.

osteoclasts = experiment: osteoclast survival; format: cell-based; details: 48 hours, RANKL and M-CSF, vs untreated control
Method: To determine the effect of the compounds on osteoclast survival, osteoclasts were treated with Rapamycin, KX1-141, KX2-328, or KX1-329 for 48 hours in the presence of RANKL and M-CSF. The untreated, control cells were incubated in the presence of RANKL and M-CSF alone. Rapamycin was used as a positive control for the inhibition of osteoclast survival.
As described above, osteoclasts were treated with Rapamycin, KX1-141, KX2-328, or KX1-329 for 48 hours in the presence of RANKL and M-CSF. […] Cells were then stained with TRAP and the number of TRAP-positive osteoclasts were counted.

[5] = tested on: CCRF-HSB-2 (Adult lymphoblastic leukemia); experiment: growth inhibition, CCRF-HSB-2; format: cell-based, Human
H226 = experiment: MTT growth inhibition, Dasatinib-resistant H226; format: cell-based, human; details: Homo sapiens, NCI-H226, H226, 8.0×10^3 cells/well, 1.5% FBS, 78 Hr
Method: Cell proliferation/growth inhibition was assessed using MTT colorimetric assay.
On Day 3, 10 μL MTT (5 mg/mL) was added to each well. Cells were then incubated in the presence of MTT for 4 hours at 37° C., appropriate CO2 conditions. After this incubation period, 90 μL 10% SDS(+HCl) was added to each well to lyse cells and solubilize formazan. Cells were then incubated overnight at 37° C., appropriate CO2 conditions.
The OD570 was measured using microplate reader. Growth inhibition curves and EC50/IC50 was determined using GraphPad Prism 4 statistical software.

K562 (CML) = experiment: growth inhibition (BrdU), K562; format: cell-based, Human; details: Homo sapiens; K562, BrdU, T=72
From the text: (§1) Growth Inhibition. […] T1 values≤T0 values were designated as T, cytotoxicity.

WRL-68 = experiment: MTT growth inhibition, WRL-68; format: cell-based, human; details: Homo sapiens, WRL68, 78 h
Method: (§2) Samples of the test compounds were formulated in 100% DMSO to obtain 20 mM stock solutions; stored @ 4° C. The IC50s and IC80s were determined as described below. Huh7, WRL-68, PLC/PRF/5, Hep 3B, and Hep G2 human cancer lines were routinely cultured and maintained in a basal medium containing 2% FBS @ 37° C., 5% CO2. […] Vehicle control contained cells, no sample. Medium control contained cells, no sample, 0.03% DMSO (highest DMSO concentration present in samples). […] On day 3, 10 μL MTT (5 mg/mL) were added to each well. Cells were incubated in the presence of MTT for 4 hours @ 37° C., 5% CO2. […] Cells were then incubated overnight @ 37°, 5% CO2. OD570 measurements were taken using BioTek Synergy HT multiplatform microplate reader. Growth inhibition curves IC50s and IC80s were determined using GraphPad Prism 5 statistical software.

HuH7 = experiment: MTT growth inhibition, HuH7; format: cell-based, human; details: Homo sapiens, Huh-7, 78 h
Method: Samples of the test compounds were formulated in 100% DMSO to obtain 20 mM stock solutions; stored @ 4° C. The IC50s and IC80s were determined as described below. Huh7, WRL-68, PLC/PRF/5, Hep 3B, and Hep G2 human cancer lines were routinely cultured and maintained in a basal medium containing 2% FBS @ 37° C., 5% CO2. […] The assay medium was basal medium/1.5% FBS. Cells were cultured overnight in 96-well plates at 37° C., 5% CO2 prior to KX2-391. MSA and Dasatinib addition. […] 10 μL of 20× dilutions were added to the appropriate wells (n=3) containing 190 μL cancer cell line; 6561 nM to 0.012 nM range of final concentrations. Vehicle control contained cells, no sample. Medium control contained cells, no sample, 0.03% DMSO (highest DMSO concentration present in samples). […] On day 3, 10 μL MTT (5 mg/mL) were added to each well. Cells were incubated in the presence of MTT for 4 hours @ 37° C., 5% CO2. […] Cells were then incubated overnight @ 37°, 5% CO2. OD570 measurements were taken using BioTek Synergy HT multiplatform microplate reader. Growth inhibition curves IC50s and IC80s were determined using GraphPad Prism 5 statistical software.

PLC/PRF/5 = experiment: MTT growth inhibition, PLC/PRF/5; format: cell-based, human; details: Homo sapiens, PLC-PRF-5, 78 h
Method: as §2

Hep 3B = experiment: MTT growth inhibition, Hep 3B; format: cell-based, human; details: Homo sapiens, Hep3B, 78 h
Method: as §2

[6] = tested on: PC3-MM2 prostate cancer cells; experiment: orthotopic prostate model for in vivo metastases; design: species or system Nu/Nu mice; details: 15 mg/kg/day oral gavage
Method: Nu/Nu mice (8-12 weeks of age) were injected with PC3-MM2 prostate cancer cells into the prostate as described previously in Pettaway et al., Clin Cancer Res 1996, 2:1627-1636, hereby incorporated herein by reference in its entirety. […] All mice were sacrificed by cervical dislocation on about day 42. Tumor volume (measured by caliper), weight, and incidence of regional (celiac or para-aortal) lymph node metastases were recorded.

[7] = tested on: MOLT-4 (Adult lymphoblastic leukemia); experiment: growth inhibition, MOLT-4; format: cell-based, Human; details: Homo sapiens
[8] = tested on: HT29 (human colon cancer); details: mouse, in vivo
Ba/F3 (IL-3 induced) = experiment: MTT growth inhibition, Ba/F3 + IL-3; format: cell-based; details: 96 hrs
[9] = tested on: lung cancer cell line A549; experiment: tumor growth inhibition, A549; format: cell-based, Human; details: Homo sapiens; A549 (Lung) cells
From the text: as §1

[10] = tested on: lung cancer cell line H460; experiment: tumor growth inhibition, H460; format: cell-based; details: Homo sapiens, NCI-H460; H460 cells
Method: (§3) These GI50's were determined using the standard tumor growth inhibition assays, similar to that described in detail for the HT29 cell line above, and the following cell lines: colon tumor cell lines KM 12, lung cancer cell line H460 and lung cancer cell line A549 (all are NCI standard tumor cell lines).

[11] = tested on: colon tumor cell line KM 12; experiment: tumor growth inhibition, KM12; format: cell-based; details: Homo sapiens; KM12 cells
Method: as §3

**Q.** Which results are given for `O=C(Cc1ccc(-c2ccccc2)cn1)NCc1cccc(F)c1` [KX1-329]?
**A.** number of osteoclasts on the bone slices ([1]; FIG. 20A): reduced; number of TRAP-positive osteoclasts on the bone slices ([1]; FIG. 21A): reduced; number of resorption pits on the bone slices ([2]; FIG. 20B): reduced; number of resorption pits on the bone slices (Toluidine Blue) ([2]; FIG. 21B): reduced; activity at 0.1 µM (c-Src 3T3 cells): 96%; activity at 1 µM (c-Src 3T3 cells): < 0%; activity at 10 µM (c-Src 3T3 cells): < 0%; GI50 (c-Src 3T3 cells): 269 nM; formation of osteoclasts (staining) [3]: inhibited; number of TRAP-positive osteoclasts (formation) [3]: reduced; protein concentration in osteoblast cell lysates (osteoblasts; 0.06 μM and 0.3 μM): increased protein concentration; protein concentration in osteoblast cell lysates (osteoblasts; […] and 7.5 μM): reduced protein concentration; GI50 (HT29 cell line): 338 nM; activity at 0.05 µM (HT29 cell line): 101%; activity at 0.5 µM (HT29 cell line): < 0%; activity at 5 µM (HT29 cell line): < 0%; average dB threshold shifts [4]: lower; number of TRAP-positive osteoclasts (survival) (osteoclasts): reduced; survival of osteoclasts (staining) (osteoclasts): inhibited

**Q.** Which results are given for `Cc1nc(Nc2ncc(C(=O)Nc3c(C)cccc3Cl)s2)cc(N2CCN(CCO)CC2)n1` [Dasatinib, reference compound]?
**A.** GI50 [5]: Inactive (n = 1); IC50 (H226): 163 nM; IC80 (H226): 7760 nM; GI50 (K562 (CML)): < 1 nM; IC80 (WRL-68): 45600 nM; IC50 (HuH7): 1970 nM; IC80 (HuH7): 7140 nM; IC80 (PLC/PRF/5): > 50000 nM; IC80 (Hep 3B): > 50000 nM; LN metastasis [6]: 2/5; Tumor incidence [6]: 5/6; Tumor weight (g) Median [6]: 0.43 g; GI50 [7]: 644 nM; tolerability (reason for dose lowering at day 5) [8]: weight loss; GI50 (Ba/F3 (IL-3 induced)): does not inhibit; also recorded: Inactive

**Q.** Which GI50 [9] does the source give for `O=C(Cc1ccc(-c2ccccc2)cc1)NCc1cccc(O)c1` [KX1-136, N(3-hydroxy-benzyl)-4-biphenylacetamide] here?
**A.** 330 nM

**Q.** What about the GI50 [10] of the same compound?
**A.** 280 nM

**Q.** What about the activity at 0.1 µM (c-Src 3T3 cells) of the same compound?
**A.** 46.3%

**Q.** What about the activity at 1 µM (c-Src 3T3 cells) of the same compound?
**A.** < 0%

**Q.** What about the activity at 10 µM (c-Src 3T3 cells) of the same compound?
**A.** < 0%

**Q.** And the GI50 (c-Src 3T3 cells)?
**A.** 53 nM

**Q.** What about the GI50 [11] of the same compound?
**A.** 105 nM

**Q.** What about the GI50 (HT29 cell line) of the same compound?
**A.** 484 nM

**Q.** What about the activity at 0.05 µM (HT29 cell line) of the same compound?
**A.** 83.1%

**Q.** What about the activity at 0.5 µM (HT29 cell line) of the same compound?
**A.** < 0%

**Q.** And the activity at 5 µM (HT29 cell line)?
**A.** < 0%

**Q.** And the melting point?
**A.** 169 to 170 °C
